# What was measured:
# [1] = tested on: HIV (H9/HTLV-IIIB) in C8166 cells; experiment: plaque assay: inhibition of syncytia formation in HIV-infected C8166 cells; assay type: cell-based; conditions: Table V, 72 h, 50% inhibition of syncytia formation
# Procedure, shortened: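 C8166 cells (5×10^4/well) infected with 50× TCID50 H9/HTLV-IIIB in HEPES-buffered RPMI 1640 (pH 7.2), 10% FCS, with test compound in triplicate; 72 h at 37°, 5% CO2. Syncytia centers counted by phase-contrast microscopy; EC50 from percent inhibition versus serial dilutions by non-linear regression.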
# HIV protease = target: T1, HIV protease (Human immunodeficiency virus type 1 group M subtype B, UniProt P04585); experiment: Recombinant HIV Protease HPLC Assay; assay type: biochemical; conditions: Table V; 37°, 30 min, pH 5.5
# T1 construct: HIV protease was expressed in E. coli; made in house; host or cells: E. coli (plasmid pBRT1 prt+)
# Procedure, shortened: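 Recombinant protease from E. coli (pBRT1 prt+ construct), purified and diluted 1/38 for use, cleaves the decapeptide substrate VSFNFPQITL-NH2, containing an HIV polyprotein cleavage site. Inhibition of cleavage is monitored by HPLC.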
# [2] = Human immunodeficiency virus 1, IIIB
SMILES,"EC50 [1, 2] [nM]",IC50 (HIV protease) [nM],EC50 [1] [nM]
"Cc1cc(C)nc(S[C@@H]2CCN(C[C@@H](O)[C@H](Cc3ccccc3)NC(=O)[C@@H](NC(=O)c3ccc4ccccc4n3)C(C)C)[C@H](C(=O)NC(C)(C)C)C2)n1 [Table V, entry 4, N-tert-butyl-1-{2(R)-hydroxy-4-phenyl-3(S)-{{N-(2-quinolylinylcarbonyl)valyl}amino}butyl}-4(R)-{(4,6-dimethyl-2-pyrimidinyl)thio}piperidine-2-carboxamide]",8,2.7,
"CC(C)[C@H](NC(=O)c1ccc2ccccc2n1)C(=O)N[C@@H](Cc1ccccc1)[C@H](O)CN1CC[C@@H](Sc2ccncc2)C[C@H]1C(=O)NC(C)(C)C [Table V, entry 5, N-tert-butyl-1-{2(S)(R)-hydroxy-4-phenyl-3(S)-{{N-(2-quinolylinylcarbonyl)valyl}amino}butyl}-4(R)-(4-pyridinylthio)piperidine-2-carboxamide]",3,1.5,
"CC(C)[C@H](NC(=O)c1ccc2ccccc2n1)C(=O)N[C@@H](Cc1ccccc1)[C@H](O)CN1CC[C@@H](Oc2ncccn2)C[C@H]1C(=O)NC(C)(C)C [Table V, entry 10, N-tert-butyl-1-{2(S)(R)-hydroxy-4-phenyl-3(S)-{{N-(2-quinolylinylcarbonyl)valyl}amino}butyl}-4(R)-(2-pyrimidinyloxy)piperidine-2-carboxamide]",25,3.2,
"Cc1cc(C)nc(O[C@@H]2CCN(C[C@@H](O)[C@H](Cc3ccccc3)NC(=O)[C@@H](NC(=O)c3ccc4ccccc4n3)C(C)C)[C@H](C(=O)NC(C)(C)C)C2)n1 [Table V, entry 11, N-tert-butyl-1-{2(S)(R)-hydroxy-4-phenyl-3(S)-{{N-(2-quinolylinylcarbonyl)valyl}amino}butyl}-4(R)-{(4,6-dimethyl-2-pyrimidinyl)oxy}piperidine-2-carboxamide]",20,4,
"Cc1ccnc(O[C@@H]2CCN(C[C@@H](O)[C@H](Cc3ccccc3)NC(=O)[C@@H](NC(=O)c3ccc4ccccc4n3)C(C)C)[C@H](C(=O)NC(C)(C)C)C2)n1 [Table V, entry 12, N-tert-butyl-1-{2(S)(R)-hydroxy-4-phenyl-3(S)-{{N-(2-quinolylinylcarbonyl)valyl}amino}butyl}-4(R)-{(4-methyl-2-pyrimidinyl)oxy}piperidine-2-carboxamide]",44,4.5,
"CC(C)[C@H](NC(=O)c1ccc2ccccc2n1)C(=O)N[C@@H](Cc1ccccc1)C(O)CN1CC[C@@H](S(=O)(=O)c2ccccc2)CC1C(=O)NC(C)(C)C (stereo partly drawn) [Table V, entry 14, N-tert-butyl-1-{2(S)(R)-hydroxy-4-phenyl-3(S)-{{N-(2-quinolylinylcarbonyl)valyl}amino}butyl}-4(R)-(phenylsulfonyl)piperidine-2-carboxamide]",,2.9,23
"CC(C)[C@H](NC(=O)c1ccc2ccccc2n1)C(=O)N[C@@H](Cc1ccccc1)[C@H](O)CN1CC[C@@H](Oc2ccc(F)cc2)C[C@H]1C(=O)NC(C)(C)C [Table V, entry 15, N-tert-butyl-1-{2(S)(R)-hydroxy-4-phenyl-3(S)-{{N-(2-quinolylinylcarbonyl)valyl}amino}butyl}-4(R)-{(4-fluorophenyl)oxy}piperidine-2-carboxamide]",22,2.6,
"CC(C)[C@H](NC(=O)c1ccc2ccccc2n1)C(=O)N[C@@H](Cc1ccccc1)[C@H](O)CN1CC[C@@H](OCc2ccncc2)C[C@H]1C(=O)NC(C)(C)C [Table V, entry 16, N-tert-butyl-1-{2(S)(R)-hydroxy-4-phenyl-3(S)-{{N-(2-quinolylinylcarbonyl)valyl}amino}butyl}-4(R)-(4-pyridinylmethoxy)piperidine-2-carboxamide]",22,4.2,
"CC(C)[C@H](NC(=O)c1ccc2ccccc2n1)C(=O)N[C@@H](Cc1ccccc1)[C@H](O)CN1CC[C@@H](S(=O)(=O)Cc2ccccn2)C[C@H]1C(=O)NC(C)(C)C [Table V, entry 17, N-tert-butyl-1-{2(S)(R)-hydroxy-4-phenyl-3(S)-{{N-(2-quinolylinylcarbonyl)valyl}amino}butyl}-4(R)-{(2-pyridinylmethyl)sulfonyl}piperidine-2-carboxamide]",33,2.4,
"CC(C)[C@H](NC(=O)c1ccc2ccccc2n1)C(=O)N[C@@H](Cc1ccccc1)[C@H](O)CN1CC[C@@H](S(=O)(=O)Cc2cccnc2)C[C@H]1C(=O)NC(C)(C)C [Table V, entry 18, N-tert-butyl-1-{2(S)(R)-hydroxy-4-phenyl-3(S)-{{N-(2-quinolylinylcarbonyl)valyl}amino}butyl}-4(R)-{(3-pyridinylmethyl)sulfonyl}piperidine-2-carboxamide]",67,1.8,
"CC(C)[C@H](NC(=O)c1ccc2ccccc2n1)C(=O)N[C@@H](Cc1ccccc1)[C@H](O)CN1CC[C@@H](S(=O)(=O)Cc2ccncc2)C[C@H]1C(=O)NC(C)(C)C [Table V, entry 19, N-tert-butyl-1-{2(S)(R)-hydroxy-4-phenyl-3(S)-{{N-(2-quinolylinylcarbonyl)valyl}amino}butyl}-4(R)-{(4-pyridinylmethyl)sulfonyl}piperidine-2-carboxamide]",73,4.6,
"CC(C)[C@H](NC(=O)c1ccc2ccccc2n1)C(=O)N[C@@H](Cc1ccccc1)[C@H](O)CN1CC[C@@H](S(=O)(=O)c2ccccn2)C[C@H]1C(=O)NC(C)(C)C [Table V, entry 20, N-tert-butyl-1-{2(S)(R)-hydroxy-4-phenyl-3(S)-{{N-(2-quinolylinylcarbonyl)valyl}amino}butyl}-4(R)-(2-pyridinylsulfonyl)piperidine-2-carboxamide]",13,1.7,
"Cc1cc(S[C@@H]2CCN(C[C@@H](O)[C@H](Cc3ccccc3)NC(=O)[C@@H](NC(=O)c3ccc4ccccc4n3)C(C)C)[C@H](C(=O)NC(C)(C)C)C2)nc(C)n1 [Table V, entry 22, N-tert-butyl-1-{2(R)-hydroxy-4-phenyl-3(S)-{{N-(2-quinolylinylcarbonyl)valyl}amino}butyl}-4(R)-{(2,6-dimethyl-4-pyrimidinyl)thio}piperidine-2(S)-carboxamide]",11,2.4,

# More lines, in order of falling EC50 [1, 2], values ahead:
"EC50 [1, 2] [nM]",IC50 (HIV protease) [nM],SMILES,EC50 [1] [nM]
25,1.7,"CC(C)[C@H](NC(=O)c1ccc2ccccc2n1)C(=O)N[C@@H](Cc1ccccc1)[C@H](O)CN1CC[C@@H](S(=O)(=O)c2ccncc2)C[C@H]1C(=O)NC(C)(C)C [Table V, entry 21, N-tert-butyl-1-{2(R)-hydroxy-4-phenyl-3(S)-{{N-(2-quinolylinylcarbonyl)valyl}amino}butyl}-4(R)-(4-pyridinylsulfonyl)piperidine-2(S)-carboxamide]",
24,3.9,"CC(C)[C@H](NC(=O)c1ccc2ccccc2n1)C(=O)N[C@@H](Cc1ccccc1)[C@H](O)CN1CC[C@@H](OCc2ccccn2)C[C@H]1C(=O)NC(C)(C)C [Table V, entry 3, N-tert-butyl-1-{2(R)-hydroxy-4-phenyl-3(S)-{{N-(2-quinolylinylcarbonyl)valyl}amino}butyl}-4(R)-(2-pyridinylmethoxy)piperidine-2-carboxamide]",
17,3.6,"Cc1cc(O[C@@H]2CCN(C[C@@H](O)[C@H](Cc3ccccc3)NC(=O)[C@@H](NC(=O)c3ccc4ccccc4n3)C(C)C)[C@H](C(=O)NC(C)(C)C)C2)nc(C)n1 [Table V, entry 13, N-tert-butyl-1-{2(S)(R)-hydroxy-4-phenyl-3(S)-{{N-(2-quinolylinylcarbonyl)valyl}amino}butyl}-4(R)-{(2,6-dimethyl-4-pyrimidinyl)oxy}piperidine-2-carboxamide]",
14,3.4,"CC(C)[C@H](NC(=O)c1ccc2ccccc2n1)C(=O)N[C@@H](Cc1ccccc1)[C@H](O)CN1CC[C@@H](Oc2ccccc2)C[C@H]1C(=O)NC(C)(C)C [Table V, entry 7, N-tert-butyl-1-{2(S)(R)-hydroxy-4-phenyl-3(S)-{{N-(2-quinolylinylcarbonyl)valyl}amino}butyl}-4(R)-phenoxypiperidine-2-carboxamide]",
5,4.2,"CC(C)[C@H](NC(=O)c1ccc2ccccc2n1)C(=O)N[C@@H](Cc1ccccc1)[C@H](O)CN1CC[C@@H](SCc2ccccn2)C[C@H]1C(=O)NC(C)(C)C [Table V, entry 9, N-tert-butyl-1-{2(S)(R)-hydroxy-4-phenyl-3(S)-{{N-(2-quinolylinylcarbonyl)valyl}amino}butyl}-4(R)-{(2-pyridinylmethyl)thio}piperidine-2-carboxamide]",
4,1.9,"CC(C)[C@H](NC(=O)c1ccc2ccccc2n1)C(=O)N[C@@H](Cc1ccccc1)[C@H](O)CN1CC[C@@H](Sc2ccccn2)C[C@H]1C(=O)NC(C)(C)C [Table V, entry 6, N-tert-butyl-1-{2(S)(R)-hydroxy-4-phenyl-3(S)-{{N-(2-quinolylinylcarbonyl)valyl}amino}butyl}-4(R)-(2-pyridinylthio)piperidine-2-carboxamide]",
3,2.2,"CC(C)[C@H](NC(=O)c1ccc2ccccc2n1)C(=O)N[C@@H](Cc1ccccc1)[C@H](O)CN1CC[C@@H](SCc2cccnc2)C[C@H]1C(=O)NC(C)(C)C [Table V, entry 8, N-tert-butyl-1-{2(S)(R)-hydroxy-4-phenyl-3(S)-{{N-(2-quinolylinylcarbonyl)valyl}amino}butyl}-4(R)-{(3-pyridinylmethyl)thio}piperidine-2-carboxamide]",
